According to USRE46943E1, “Radioprotector compounds and methods” (PETER MACCALLUM CANCER INSTITUTE, priority 2010, dated 2018):

What was measured:
mice = assay: Radioprotection of mouse jejunum, subcutaneous administration: local reaction at injection site; format: in vivo; details: subcutaneous solutions in polyethylene glycol (MW 400), similar experiments with the jejunum model
Description: 2-Hydroxypropyl-β-cyclodextrin (HPCD, Sigma-Aldrich, typical MW 1540) vehicle solution was prepared by dissolving 3.6 g of HPCD in 9.3 mL of phosphate buffered saline (PBS) resulting in 30% v/w solution. […] The concentration of M2PB was measured following appropriate dilution in 45% MeOH 0.1% TFA using an extinction coefficient […] at 345 nm. The M2PB/HPCD stock was diluted to 8.75 mg/mL (22 mM) in HPCD vehicle to produce the final M2PB/HPCD formulation, which was injected subcutaneously into mice, between the shoulder blades (scruff of the neck) at a volume of 8×10^−3 ml/g body weight.
The subsequent irradiation and analysis was as described for Example 56.

[1] = tested on: transformed human keratinocyte cell line (FEP 1811); assay: Clonogenic survival cell culture assay for cytotoxicity; format: cell-based; details: Homo sapiens, Keratinocyte, light or radiation study; un-irradiated keratinocytes, one hour drug exposure, colonies counted after eight days; read-out: C50 (concentration of radioprotector that results in 50% clonogenic survival)
Method in brief: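 Mid-log monolayers exposed to test drug for 1 h, then pronase-dispersed and plated; colonies counted after 8 days. For […], irradiation at 0.6 Gy per minute began 30 min after drug addition, with total drug exposure held at 60 min before plating for clonogenic survival.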

[2] = tested on: transformed human keratinocyte cell line (FEP 1811); assay: Clonogenic survival cell culture assay for radioprotective activity (12 Gy 137Cs gamma irradiation); format: cell-based; details: 12 Gy; for DMF10 (dose modification factor at a concentration of 10 microM of radioprotector): 10 microM radioprotector; for DMFm (dose modification factor at maximum protection): DMF=Dp/Dc at survival level Sm; for PF (protection factor = Sm/So): survival at maximum protection vs irradiation only
Method in brief: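 Survival after irradiation gave protection factor PF = Sm/So (maximum-protection survival over irradiation-only survival). DMF = Dp/Dc is the ratio of doses giving survival Sm with and without radioprotector. DMF10 uses survival at 10 microM radioprotector in place of Sm.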

Cc1cc(N(C)C)ccc1-c1nc2ccc(-c3nc4ccc(N5CCN(C)CC5)cc4[nH]3)cc2[nH]1 [methylproamine, reference compound]
local reaction or toxicity at the site of subcutaneous injection (mice): had been observed

Cc1ccnc(-c2nc3ccc(-c4nc5ccc(N6CCOCC6)cc5[nH]4)cc3[nH]2)c1 [Example 21, 2-(5′-(5″-Morpholinobenzimidazol-2″-yl)benzimidazol-2′-yl)-4-methylpyridine]
IC50 [1]: 213 µM | DMF10 (dose modification factor at a concentration of 10 microM of radioprotector) [2]: 1.47 | DMFm (dose modification factor at maximum protection) [2]: 1.77 | PF (protection factor = Sm/So) [2]: 18.2 | melting point: 214 to 230 °C

Cc1ccnc(-c2nc3ccc(-c4nc5ccc(N6CCC(O)CC6)cc5[nH]4)cc3[nH]2)c1 [Example 50, 2-(5′-(5″-(4′″-hydroxypiperidin-1′″-yl)benzimidazol-2″-yl)benzimidazol-2′-yl)-4-methylpyridine]
IC50 [1]: 134 µM | DMF10 (dose modification factor at a concentration of 10 microM of radioprotector) [2]: 1.33 | DMFm (dose modification factor at maximum protection) [2]: 1.79 | PF (protection factor = Sm/So) [2]: 23.5 | melting point: 204 to 209 °C

CN1CCN(c2ccc3nc(-c4ccc5nc(-c6cc(N(C)C)ccn6)[nH]c5c4)[nH]c3c2)CC1 [Example 10, 4-Dimethylamino-2-(5′-(5″-(4′″-methylpiperazin-1′″-yl)benzimidazol-2″-yl)benzimidazol-2′-yl)pyridine]
IC50 [1]: 18.6 µM | DMF10 (dose modification factor at a concentration of 10 microM of radioprotector) [2]: 1.39 | DMFm (dose modification factor at maximum protection) [2]: 1.51 | PF (protection factor = Sm/So) [2]: 10.1 | melting point: 216 to 220 °C

OCCN1CCN(c2ccc3nc(-c4ccc5nc(-c6ccccn6)[nH]c5c4)[nH]c3c2)CC1 [Example 41, 2-(5′-(5″-(4′″-(2″″-hydroxyethyl)piperazin-1′″-yl)benzimidazol-2″-yl)benzimidazol-2′-yl)pyridine]
IC50 [1]: 90.6 µM | DMF10 (dose modification factor at a concentration of 10 microM of radioprotector) [2]: 1.44 | DMFm (dose modification factor at maximum protection) [2]: 1.95 | PF (protection factor = Sm/So) [2]: 19.6 | melting point: 218 to 221 °C

c1ccc(-c2nc3ccc(-c4nc5ccc(NN6CCOCC6)cc5[nH]4)cc3[nH]2)nc1 [Example 42, 2-(5′-(5″-(morpholinoamino)benzimidazol-2″-yl)benzimidazol-2′-yl)pyridine]
IC50 [1]: 206 µM | DMF10 (dose modification factor at a concentration of 10 microM of radioprotector) [2]: 1.38 | DMFm (dose modification factor at maximum protection) [2]: 1.86 | PF (protection factor = Sm/So) [2]: 17.8 | melting point: 198 to 205 °C

CN1CCN(c2ccc3nc(-c4ccc5nc(-c6ccc(C(F)(F)F)cn6)[nH]c5c4)[nH]c3c2)CC1 [Example 49, 2-(5′-(5″-(4′″-methylpiperazin-1′″-yl)benzimidazol-2″-yl)benzimidazol-2′-yl)-5-(trifluoromethyl)pyridine]
IC50 [1]: 12.2 µM | DMF10 (dose modification factor at a concentration of 10 microM of radioprotector) [2]: 2.21 | DMFm (dose modification factor at maximum protection) [2]: 2.38 | PF (protection factor = Sm/So) [2]: 33.1 | melting point: 320 °C (dec.)

OC1CCCN(c2ccc3nc(-c4ccc5nc(-c6ccccn6)[nH]c5c4)[nH]c3c2)C1 (stereo not drawn) [Example 26, 2-(5′-(5″-(3′″-Hydroxypiperidin-1′″-yl)benzimidazol-2″-yl)benzimidazol-2′-yl)pyridine]
IC50 [1]: 77.9 µM | DMF10 (dose modification factor at a concentration of 10 microM of radioprotector) [2]: 1.33 | DMFm (dose modification factor at maximum protection) [2]: 1.90 | PF (protection factor = Sm/So) [2]: 14.7 | melting point: 278 to 282 °C

Cc1ccc(-c2nc3ccc(-c4nc5ccc(N6CCC(O)CC6)cc5[nH]4)cc3[nH]2)nc1 [Example 51, 2-(5′-(5″-(4′″-hydroxypiperidin-1′″-yl)benzimidazol-2″-yl)benzimidazol-2′-yl)-5-methylpyridine]
IC50 [1]: 124 µM | DMF10 (dose modification factor at a concentration of 10 microM of radioprotector) [2]: 1.90 | DMFm (dose modification factor at maximum protection) [2]: 2.07 | PF (protection factor = Sm/So) [2]: 58.7 | melting point: 208 to 213 °C

CN1CCN(c2ccc3nc(-c4ccc5nc(-c6n[nH]c7ccccc67)[nH]c5c4)[nH]c3c2)CC1 [Example 16, 3-(5′-(5″-(4′″-Methylpiperazin-1′″-yl)benzimidazol-2″-yl)benzimidazol-2′-yl)indazole]
IC50 [1]: 40.9 µM | DMF10 (dose modification factor at a concentration of 10 microM of radioprotector) [2]: 1.78 | DMFm (dose modification factor at maximum protection) [2]: 2.16 | PF (protection factor = Sm/So) [2]: 18.3 | melting point: 235 °C (dec.)

c1ccc(-c2nc3ccc(-c4nc5ccc(N6CCCCC6)cc5[nH]4)cc3[nH]2)nc1 [Example 24, 2-(5′-(5″-(Piperidin-1′″-yl)benzimidazol-2″-yl)benzimidazol-2′-yl)pyridine]
IC50 [1]: 24 µM | DMF10 (dose modification factor at a concentration of 10 microM of radioprotector) [2]: 1.35 | DMFm (dose modification factor at maximum protection) [2]: 1.42 | PF (protection factor = Sm/So) [2]: 7.5 | melting point: 196 to 203 °C

COCCN(C)c1ccc2[nH]c(-c3ccc4[nH]c(-c5ccccn5)nc4c3)nc2c1 [Example 38, 2-(5′-(5″-((2′″-Methoxyethyl)(methyl)amino)benzimidazol-2″-yl)benzimidazol-2′-yl)pyridine]
IC50 [1]: 41.2 µM | DMF10 (dose modification factor at a concentration of 10 microM of radioprotector) [2]: 1.32 | DMFm (dose modification factor at maximum protection) [2]: 1.55 | PF (protection factor = Sm/So) [2]: 8.8 | melting point: 150 to 155 °C

CN(C)c1ccc2nc(-c3ccc4nc(-c5ccccn5)[nH]c4c3)[nH]c2c1 [Example 28, 2-(5′-(5″-(Dimethylamino)benzimidazol-2″-yl)benzimidazol-2′-yl)pyridine]
IC50 [1]: 60.8 µM | DMF10 (dose modification factor at a concentration of 10 microM of radioprotector) [2]: 1.30 | DMFm (dose modification factor at maximum protection) [2]: 1.57 | PF (protection factor = Sm/So) [2]: 13.5 | melting point: 180 °C (dec.)

CN1CCN(c2ccc3nc(-c4ccc5nc(-c6cc7ccccc7cn6)[nH]c5c4)[nH]c3c2)CC1 [Example 14, 3-(5′-(5″-(4′″-Methylpiperazin-1′″-yl)benzimidazol-2″-yl)benzimidazol-2′-yl)isoquinoline]
IC50 [1]: 26 µM | DMF10 (dose modification factor at a concentration of 10 microM of radioprotector) [2]: 2.34 | DMFm (dose modification factor at maximum protection) [2]: 2.45 | PF (protection factor = Sm/So) [2]: 25.1 | melting point: 224 to 229 °C

c1ccc2cc(-c3nc4ccc(-c5nc6ccc(N7CCOCC7)cc6[nH]5)cc4[nH]3)ncc2c1 [Example 20, 3-(5′-(5″-Morpholinobenzimidazol-2″-yl)benzimidazol-2′-yl)isoquinoline]
IC50 [1]: 172 µM | DMF10 (dose modification factor at a concentration of 10 microM of radioprotector) [2]: 1.52 | DMFm (dose modification factor at maximum protection) [2]: 1.57 | PF (protection factor = Sm/So) [2]: 11.4 | melting point: 202 °C (dec.)

CN1CCN(c2ccc3nc(-c4ccc5nc(-c6nccc7ccccc67)[nH]c5c4)[nH]c3c2)CC1 [Example 15, 1-(5′-(5″-(4′″-Methylpiperazin-1′″-yl)benzimidazol-2″-yl)benzimidazol-2′-yl)isoquinoline]
IC50 [1]: 26.9 µM | DMF10 (dose modification factor at a concentration of 10 microM of radioprotector) [2]: 1.70 | DMFm (dose modification factor at maximum protection) [2]: 1.85 | PF (protection factor = Sm/So) [2]: 36.9 | melting point: 214 to 217 °C

CN1CCN(c2ccc3nc(-c4ccc5nc(-c6cnccn6)[nH]c5c4)[nH]c3c2)CC1 [Example 12, 2-(5′-(5″-(4′″-Methylpiperazin-1′″-yl)benzimidazol-2″-yl)benzimidazol-2′-yl)pyrazine]
IC50 [1]: 54.2 µM | DMF10 (dose modification factor at a concentration of 10 microM of radioprotector) [2]: 1.15 | DMFm (dose modification factor at maximum protection) [2]: 1.29 | PF (protection factor = Sm/So) [2]: 6.5 | melting point: 175 °C (dec.)
